Here are results for 3 molecules from US10457666B2, “Stable crystal form of tipiracil hydrochloride and crystallization method for the same” (TAIHO PHARMACEUTICAL CO., LTD., priority 2013, dated 2019).

A short description of series [1]: Stability test (storage stability after preservation). In kind it is physicochemical. To be noted: preservation at 40° C. for six months; for change in powder X-ray diffraction pattern after preservation (storage stability): hydrochloride. As to the method: Crystal I, Crystal III, and Crystal II of tipiracil hydrochloride obtained in accordance with Example 1, Example 2, and Reference Example 1 respectively were tested for storage stability after preservation at a temperature of 40° C. for six months.

Series [2] can be described thus: Test for measurement of electric charge amount by air transfer. To be noted: for Amount of electric charge per unit mass, average value: average of 3 measurements; for Amount of electric charge per unit mass, average value / Amount of electric charge / Amount of electric charge per unit mass: air transfer 130 L/min, SUS electrifying tube, hydrochloride; for Amount of electric charge / Amount of electric charge per unit mass: individual measurements No. 1-3; for polarity of charge: relative to SUS membrane. In kind it is physicochemical. As to the method: Electric charge amounts of Crystal I and Crystal III obtained in accordance with Example 1 and Example 2 respectively were measured by air transfer. Crystal I or Crystal III was put in a powder supply part of an electrifying tube (made of SUS, 24.6×500 mm), and was left for 10 minutes. The sample was transferred by air at a flow rate of 130 L/min and the electric charge amount was calculated from the current value at that time obtained from the electrifying tube. ? =−∫0^tIdt Q: Amount of electric charge [C] I: Current generated during measurement [A] t: Measuring time […]
The measurement was performed 5 times, of which 3 times that gave stable results were adopted. The average of the values of the 3 times was regarded as the measured value.

SMILES strings stand for the structures. “And” between values parts separate entries of the source, which are not always exact repeats. Identical values can stand only once.

Take `Cl.N=C1CCCN1Cc1[nH]c(=O)[nH]c(=O)c1Cl` [Crystal I, 5-chloro-6-(2-iminopyrrolidin-1-yl)methyl-2,4(1H,3H)-pyrimidinedione hydrochloride]: in series [1], the “amounts of analogous substances after preservation” value was “small and not increased”; the “change in powder X-ray diffraction pattern after preservation (storage stability)” value was “no change”. Moreover, in series [2], the “Amount of electric charge per unit mass, average value” is recorded as 1.0 × 10^−7 C/g; the “Amount of electric charge” value was 5.3 × 10^−8 C and 5.0 × 10^−8 C; the “Amount of electric charge per unit mass” value is 1.1 × 10^−7 C/g and 9.7 × 10^−8 C/g and 9.8 × 10^−8 C/g; the polarity of charge result is recorded as “(positively-charged”.
For `Cl.N=C1CCCN1Cc1[nH]c(=O)[nH]c(=O)c1Cl` [Crystal II, 5-chloro-6-(2-iminopyrrolidin-1-yl)methyl-2,4(1H,3H)-pyrimidinedione hydrochloride], the “change in powder X-ray diffraction pattern after preservation (storage stability)” value in series [1] is reported as “not the same”.
Consider `Cl.N=C1CCCN1Cc1[nH]c(=O)[nH]c(=O)c1Cl` [Crystal III, 5-chloro-6-(2-iminopyrrolidin-1-yl)methyl-2,4(1H,3H)-pyrimidinedione hydrochloride], for which, in series [1], the “amounts of analogous substances after preservation” value was “small and not increased”; the “change in powder X-ray diffraction pattern after preservation (storage stability)” value is “no change”. Further, in series [2], the “Amount of electric charge per unit mass, average value” is on record as 3.5 × 10^−7 C/g; the “Amount of electric charge” value is 2.0 × 10^−7 C and 2.1 × 10^−7 C and 1.8 × 10^−7 C; the “Amount of electric charge per unit mass” value is 3.2 × 10^−7 C/g (2×) and 4.2 × 10^−7 C/g; the polarity of charge result is “(positively-charged”. Further, in series [2] (comparison of Table 2 and Table 3), the “charge relative to Crystal I” value is reported as “three times as much charge as Crystal I”.
